Laboratory results from PubChem BioAssay (NCI).
Several values for one entry are separate records, joined by “and”; a condition that tells them apart may be missing. Equal values may be shown once.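 Step 1: Grow cells in 96-well plates. Step 2: Expose to compound for 48 hours at 5 concentrations. Step 3: Interpolate endpoints linearly; if unreached, use highest concentration. GI50: concentration for 50% inhibition of growth. TGI: concentration producing complete growth inhibition.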

What was measured:
Experiment in all cases: NCI tumour cell line growth inhibition, 48 h
BT-549 breast = tested on: BT-549 breast
DU-145 prostate = tested on: DU-145 prostate
HS 578T breast = tested on: HS 578T breast
LOX IMVI melanoma = tested on: LOX IMVI melanoma
MDA-MB-435 = tested on: MDA-MB-435
NCI-H226 lung = tested on: NCI-H226 lung
OVCAR-3 ovarian = tested on: OVCAR-3 ovarian
OVCAR-5 ovarian = tested on: OVCAR-5 ovarian
SNB-19 CNS = tested on: SNB-19 CNS
SNB-75 CNS = tested on: SNB-75 CNS
UACC-257 melanoma = tested on: UACC-257 melanoma
UACC-62 melanoma = tested on: UACC-62 melanoma

| SMILES | TGI (BT-549 breast) [µM] | TGI (DU-145 prostate) [µM] | TGI (HS 578T breast) [µM] | TGI (LOX IMVI melanoma) [µM] | TGI (MDA-MB-435) [µM] | TGI (NCI-H226 lung) [µM] | TGI (OVCAR-3 ovarian) [µM] | TGI (OVCAR-5 ovarian) [µM] | TGI (SNB-19 CNS) [µM] | TGI (SNB-75 CNS) [µM] | TGI (UACC-257 melanoma) [µM] | TGI (UACC-62 melanoma) [µM] | GI50 (DU-145 prostate) [µM] | GI50 (HS 578T breast) | GI50 (SNB-19 CNS) [µM] |
| --- | --- | --- | --- | --- | --- | --- | --- | --- | --- | --- | --- | --- | --- | --- | --- |
| CC(=O)CCC[C@@H](C)[C@@H]1O[C@H]([C@@]2(C)CCC(=O)O2)C[C@H]2C(CSc3ccccc3)C(=O)O[C@@H]12 (stereo partly specified) | 27.5 | 29.1 | > 41.6 | 38.2 | 45.6 | 37.5 | 27.8 | 32.4 | > 100 | > 59.4 | 28.1 | 28.5 | – | – | – |
| Cc1ccc(S(=O)(=O)N2CCCCN(S(=O)(=O)c3ccc(C)cc3)Cc3ccccc3OCCOCCOc3c4cccc3Cc3cccc5c3OCCOCCOc3ccccc3CN(S(=O)(=O)c3ccc(C)cc3)CCCN(S(=O)(=O)c3ccc(C)cc3)Cc3ccccc3OCCOCCOc3c(cccc3C4)Cc3cccc(c3OCCOCCOc3ccccc3C2)C5)cc1 | > 100 | > 100 | > 100 | > 100 | > 100 | > 100 | > 100 | > 100 | > 100 | > 100 | > 100 | > 100 | – | – | – |
| CC(=O)O[C@H]1C(=O)[C@@]2(C)[C@H]([C@H](OC(=O)C3CCCCC3)[C@]3(O)C[C@H](OC(=O)[C@H](O)[C@@H](NC(=O)C4CCCCC4)C4CCCCC4)C(C)=C1C3(C)C)[C@]1(OC(C)=O)CO[C@@H]1C[C@@H]2O | 0.778 | 2.27 | 0.0531 | 5.03 | 0.0105 | 3.88 | 0.0355 | 0.121 | 13.3 | 1.12 | 4.24 | 3.89 | – | – | – |
| CC1(C)C(=O)N=C(N)N1C(=O)OCc1ccccc1 | > 100 | > 100 | > 100 | > 100 | > 100 | > 100 | > 100 | > 100 | > 100 | > 100 | > 100 | > 100 | – | – | – |
| CC(=O)OC1COC(n2c(N)c(C#N)c(C)c(C#N)c2=S)C(OC(C)=O)C1OC(C)=O (stereo unspecified) | > 100 | > 100 | > 100 | > 100 | > 100 | > 100 | > 100 | > 100 | > 100 | > 100 | > 100 | > 100 | > 100 | > 100 µM and 38.3 µM | > 100 |
| CC(C)/C=N\n1c(N)c(C#N)c(C#N)c1C(C)C | > 100 | > 100 | 95.3 | 97.8 | 95.1 | 64.6 | 62.1 | > 100 | > 100 | 40.4 | 50.3 | 34.7 | – | – | – |
| N=C1C(=N)c2ccccc2-c2ccccc21 | 2.23 | 2.82 | > 26.1 | 1.02 | 0.4 | 3.57 | 1.41 | 3.43 | 3.01 | 3.25 | 1.46 | 2.78 | – | – | – |
| O=C1/C(=C\c2cccc(Oc3ccccc3)c2)SC(c2ccccc2)N1c1ccc(Cl)cc1 (stereo unspecified) | > 100 | > 100 | > 100 | > 100 | > 64.3 | > 100 | > 100 | > 100 | > 100 | > 100 | > 100 | > 100 | – | – | – |
| O=C(Nc1nc(C23CC4CC(CC(C4)C2)C3)cs1)c1cc2cc(Br)cc(Br)c2oc1=O | > 100 | > 100 | 79.7 | > 100 | > 100 | > 100 | > 100 | > 100 | > 100 | 85.5 | > 100 | > 100 | – | – | – |
